Laboratory results taken from US20200181104A1, “SSAO INHIBITORS AND USES THEREOF” (METACRINE, INC., priority 2018, published 2020).

What follows are molecules tested against T1, Recombinant Human SSAO/VAP-1/AOC3 (Homo sapiens, UniProt Q16853) (assay: Human Semicarbazide-Sensitive Amine Oxidase (SSAO) Assay). Conditions: recombinant enzyme, 30 minutes preincubation at 37° C., benzylamine substrate, Amplex Ultra Red/HRP fluorescence.
T1 construct: purchased R&D systems 3957-AO
T1 sequence (Q16853 1-763): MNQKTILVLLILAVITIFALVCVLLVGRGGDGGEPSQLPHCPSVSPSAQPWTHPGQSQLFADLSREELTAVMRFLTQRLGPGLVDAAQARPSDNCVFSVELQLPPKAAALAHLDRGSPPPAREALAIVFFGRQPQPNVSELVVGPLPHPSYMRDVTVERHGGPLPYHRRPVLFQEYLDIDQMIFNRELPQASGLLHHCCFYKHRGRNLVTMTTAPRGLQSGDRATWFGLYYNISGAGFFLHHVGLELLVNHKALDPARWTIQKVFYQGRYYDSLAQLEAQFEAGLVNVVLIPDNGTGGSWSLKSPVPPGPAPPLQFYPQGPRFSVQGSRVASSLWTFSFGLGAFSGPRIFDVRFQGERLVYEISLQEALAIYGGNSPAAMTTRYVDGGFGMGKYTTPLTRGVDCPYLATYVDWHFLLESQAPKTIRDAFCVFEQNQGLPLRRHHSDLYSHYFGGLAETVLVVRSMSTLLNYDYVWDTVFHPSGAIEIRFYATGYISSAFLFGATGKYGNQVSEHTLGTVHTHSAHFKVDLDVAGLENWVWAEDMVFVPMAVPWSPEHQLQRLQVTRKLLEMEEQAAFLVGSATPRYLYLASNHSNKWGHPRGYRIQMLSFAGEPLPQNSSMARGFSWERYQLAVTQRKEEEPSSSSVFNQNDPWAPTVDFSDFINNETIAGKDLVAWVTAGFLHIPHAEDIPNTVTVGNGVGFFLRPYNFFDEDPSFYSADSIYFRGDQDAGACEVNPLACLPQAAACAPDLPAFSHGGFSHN
Type: biochemical
How it was run: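 IC50 from kinetic Amplex Ultra Red/HRP fluorescence (ex 544, em 590 nm, 30-120 min) after benzylamine addition. Beforehand, 6-10 compound dilutions were preincubated 30 min at 37 °C with recombinant human SSAO in 50 mM HEPES (enzyme working concentration 2.5 μg/ml).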

| SMILES | IC50 [nM] |
| --- | --- |
| COC1(CNC(=O)C23CCC(c4ccc(OC/C(=C/F)CN)cc4)(CC2)CC3)CCOCC1 [Compound 2.98, (E)-4-(4-((2-(aminomethyl)-3-fluoroallyl)oxy)phenyl)-N-((4-methoxytetrahydro-2H-pyran-4-yl)methyl)bicyclo[2.2.2]octane-1-carboxamide] | ≤ 10 |
| NC/C(=C\F)COc1ccc(C23CCC(C(=O)N4CC(O)(C5CC5)C4)(CC2)CC3)cc1 [Compound 2.99, (E)-(4-(4-((2-(aminomethyl)-3-fluoroallyl)oxy)phenyl)bicyclo [2.2.2]octan-1-yl)(3-cyclopropyl-3-hydroxyazetidin-1-yl)methanone] | ≤ 10 |
| NC/C(=C\F)COc1ccc(C23CCC(C(=O)NCC4(O)CCCC4)(CC2)CC3)cc1 [Compound 2.100, (E)-4-(4-((2-(aminomethyl)-3-fluoroallyl)oxy)phenyl)-N-((1-hydroxycyclopentyl)methyl) bicyclo[2.2.2]octane-1-carboxamide] | ≤ 10 |
| NC/C(=C\F)COc1ccc(C23CCC(C(=O)NCC4(O)CCCCC4)(CC2)CC3)cc1 [Compound 2.101, (E)-4-(4-((2-(aminomethyl)-3-fluoroallyl)oxy)phenyl)-N-((1-hydroxycyclohexyl)methyl) bicyclo[2.2.2]octane-1-carboxamide] | ≤ 10 |
| COC1(CNC(=O)C23CCC(c4ccc(OC/C(=C/F)CN)cc4)(CC2)CC3)CCCCC1 [Compound 2.102, (E)-4-(4-((2-(aminomethyl)-3-fluoroallyl)oxy)phenyl)-N-((1-methoxycyclohexyl)methyl) bicyclo[2.2.2]octane-1-carboxamide] | 10 to 100 |
| CC(C)(C#N)CNC(=O)C12CCC(c3ccc(OC/C(=C/F)CN)cc3)(CC1)CC2 [Compound 2.103, (E)-4-(4-((2-(aminomethyl)-3-fluoroallyl)oxy)phenyl)-N-(2-cyano-2-methylpropyl)bicyclo[2.2.2] octane-1-carboxamide] | ≤ 10 |
| CC1(C)CC(NC(=O)C23CCC(c4ccc(OC/C(=C/F)CN)cc4)(CC2)CC3)CC(C)(C)O1 [Compound 2.105, (E)-4-(4-((2-(aminomethyl)-3-fluoroallyl)oxy)phenyl)-N-(2,2,6,6-tetramethyltetrahydro-2H-pyran-4-yl)bicyclo[2.2.2]octane-1-carboxamide] | ≤ 10 |
| NC/C(=C\F)COc1ccc(C23CCC(C(=O)NC4CCC5(CC4)COC5)(CC2)CC3)cc1 [Compound 2.106, (E)-4-(4-((2-(aminomethyl)-3-fluoroallyl)oxy)phenyl)-N-(2-oxaspiro[3.5]nonan-7-yl)bicyclo[2.2.2]octane-1-carboxamide] | ≤ 10 |
| NC/C(=C\F)COc1ccc(C23CCC(C(=O)NCCOC4CCOCC4)(CC2)CC3)cc1 [Compound 2.107] | ≤ 10 |
| CC(C)(NC(=O)C12CCC(c3ccc(OC/C(=C/F)CN)cc3)(CC1)CC2)C1CCOCC1 [Compound 2.108, (E)-4-(4-((2-(aminomethyl)-3-fluoroallyl)oxy)phenyl)-N-(2-(tetrahydro-2H-pyran-4-yl)propan-2-yl)bicyclo[2.2.2]octane-1-carboxamide] | ≤ 10 |
| NC/C(=C\F)COc1ccc(C23CCC(C(=O)NCC(F)(F)F)(CC2)CC3)cc1 [Compound 2.109, (E)-4-(4-((2-(aminomethyl)-3-fluoroallyl)oxy)phenyl)-N-(2,2,2-trifluoroethyl)bicyclo [2.2.2]octane-1-carboxamide] | ≤ 10 |
| CO[C@H]1CCCN(C(=O)C23CCC(c4ccc(OC/C(=C/F)CN)cc4)(CC2)CC3)C1 [Compound 2.110, (S,E)-(4-(4-((2-(aminomethyl)-3-fluoroallyl)oxy)phenyl)bicyclo [2.2.2]octan-1-yl)(3-methoxypiperidin-1-yl)methanone] | ≤ 10 |
| CO[C@@H]1CCCN(C(=O)C23CCC(c4ccc(OC/C(=C/F)CN)cc4)(CC2)CC3)C1 [Compound 2.111, (R,E)-(4-(4-((2-(aminomethyl)-3-fluoroallyl)oxy)phenyl)bicyclo [2.2.2]octan-1-yl)(3-methoxypiperidin-1-yl)methanone] | ≤ 10 |
| NC/C(=C\F)COc1ccc(C23CCC(C(=O)NC4CCN(CC(F)(F)F)CC4)(CC2)CC3)cc1 [Compound 2.112, (E)-4-(4-((2-(aminomethyl)-3-fluoroallyl)oxy)phenyl)-N-(1-(2,2,2-trifluoroethyl)piperidin-4-yl)bicyclo[2.2.2]octane-1-carboxamide] | ≤ 10 |
| NC/C(=C\F)COc1ccc(C23CCC(C(=O)NCC(F)F)(CC2)CC3)cc1 [Compound 2.113, (E)-4-(4-((2-(aminomethyl)-3-fluoroallyl)oxy)phenyl)-N-(2,2-difluoroethyl)bicyclo[2.2.2] octane-1-carboxamide] | ≤ 10 |
| NC/C(=C\F)COc1ccc(C23CCC(C(=O)NC4CC5(CCOCC5)C4)(CC2)CC3)cc1 [Compound 2.114, (E)-4-(4-((2-(aminomethyl)-3-fluoroallyl)oxy)phenyl)-N-(7-oxaspiro[3.5]nonan-2-yl)bicyclo[2.2.2]octane-1-carboxamide] | ≤ 10 |
| CO[C@H]1CCC[C@@H](NC(=O)C23CCC(c4ccc(OC/C(=C/F)CN)cc4)(CC2)CC3)C1 [Compound 2.116, 4-(4-(((E)-2-(aminomethyl)-3-fluoroallyl)oxy)phenyl)-N-((1R,3S)-3-methoxycyclohexyl)bicyclo [2.2.2]octane-1-carboxamide] | ≤ 10 |
| NC/C(=C\F)COc1ccc(C23CCC(C(=O)NC4CCN(c5ccccn5)CC4)(CC2)CC3)cc1 [Compound 2.117, (E)-4-(4-((2-(aminomethyl)-3-fluoroallyl)oxy)phenyl)-N-(1-(pyridin-2-yl)piperidin-4-yl)bicyclo[2.2.2]octane-1-carboxamide] | ≤ 10 |
| COc1ccc(CNC(=O)C23CCC(c4ccc(OC/C(=C/F)CN)cc4)(CC2)CC3)cc1 [Compound 2.118, (E)-4-(4-((2-(aminomethyl)-3-fluoroallyl)oxy)phenyl)-N-(4-methoxybenzyl)bicyclo[2.2.2] octane-1-carboxamide] | ≤ 10 |
| COc1cccc(CCNC(=O)C23CCC(c4ccc(OC/C(=C/F)CN)cc4)(CC2)CC3)c1 [Compound 2.119, (E)-4-(4-((2-(aminomethyl)-3-fluoroallyl)oxy)phenyl)-N-(3-methoxyphenethyl)bicyclo [2.2.2]octane-1-carboxamide] | ≤ 10 |
| NC/C(=C\F)COc1ccc(C23CCC(C(=O)NCCOC4CCC4)(CC2)CC3)cc1 [Compound 2.120, (E)-4-(4-((2-(aminomethyl)-3-fluoroallyl)oxy)phenyl)-N-(2-cyclobutoxyethyl)bicyclo [2.2.2]octane-1-carboxamide] | ≤ 10 |
| CO[C@H]1CCN(C(=O)C23CCC(c4ccc(OC/C(=C/F)CN)cc4)(CC2)CC3)C1 [Compound 2.121, (S,E)-(4-(4-((2-(aminomethyl)-3-fluoroallyl)oxy)phenyl)bicyclo [2.2.2]octan-1-yl)(3-methoxypyrrolidin-1-yl)methanone] | ≤ 10 |
| NC/C(=C\F)COc1ccc(C23CCC(C(=O)Nc4ccncn4)(CC2)CC3)cc1 [Compound 2.122, (E)-4-(4-((2-(aminomethyl)-3-fluoroallyl)oxy)phenyl)-N-(pyrimidin-4-yl)bicyclo[2.2.2]octane-1-carboxamide] | ≤ 10 |
| CO[C@H](C)CNC(=O)C12CCC(c3ccc(OC/C(=C/F)CN)cc3)(CC1)CC2 [Compound 2.123, (R,E)-4-(4-((2-(aminomethyl)-3-3-fluoroallyl)oxy)phenyl)-N-(2-methoxypropyl)bicyclo[2.2.2] octane-1-carboxamide] | ≤ 10 |
| COC[C@H]1C[C@@H](NC(=O)C23CCC(c4ccc(OC/C(=C/F)CN)cc4)(CC2)CC3)C1 [Compound 2.124, 4-(4-(((E)-2-(aminomethyl)-3-fluoroallyl)oxy)phenyl)-N-((1s,3s)-3-(methoxymethyl)cyclobutyl) bicyclo[2.2.2]octane-1-carboxamide] | ≤ 10 |
| CO[C@@H](C)CNC(=O)C12CCC(c3ccc(OC/C(=C/F)CN)cc3)(CC1)CC2 [Compound 2.125, (S,E)-4-(4-((2-(aminomethyl)-3-3-fluoroallyl)oxy)phenyl)-N-(2-methoxypropyl)bicyclo[2.2.2] octane-1-carboxamide] | ≤ 10 |
| COC[C@H]1C[C@H](NC(=O)C23CCC(c4ccc(OC/C(=C/F)CN)cc4)(CC2)CC3)C1 [Compound 2.126, 4-(4-(((E)-2-(aminomethyl)-3-fluoroallyl)oxy)phenyl)-N-((1r,3r)-3-(methoxymethyl)cyclobutyl) bicyclo[2.2.2]octane-1-carboxamide] | ≤ 10 |
| COc1cccc(CNC(=O)C23CCC(c4ccc(OC/C(=C/F)CN)cc4)(CC2)CC3)c1 [Compound 2.127, (E)-4-(4-((2-(aminomethyl)-3-fluoroallyl)oxy)phenyl)-N-(3-methoxybenzyl)bicyclo[2.2.2] octane-1-carboxamide] | ≤ 10 |
